# Test results taken from article PMC12612973, “Inhibition of Human Amylin Aggregation: In Silico and In Vitro Studies” (ACS Omega, 2025).
# Like-named read-outs stand apart in the source and are kept apart here.
# Columns and labels:
# human amylin (hIAPP) [1] = biological target: T1, human amylin (hIAPP) (Homo sapiens, UniProt P10997); assay: Fluorescence quenching of amylin: Stern-Volmer, binding and thermodynamic analysis; conditions: for quenching of amylin's intrinsic fluorescence: compound 0 to 20 μM, excitation 275 nm; for Kd: read-out: K b (binding constant) (converted); for ΔH / ΔS: Van't Hoff plot, 25/30/37 °C
# T1 construct: purchased Bachem USA
# T1 sequence (P10997 34-70 limits assumed): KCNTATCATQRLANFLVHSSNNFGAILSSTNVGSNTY
# Procedure: The fluorescence emission scans (wavelengths 290 to 500 nm) of 10-fold diluted amylin samples were acquired with a PerkinElmer model LS 55. The excitation wavelength was set at 275 nm to observe the fluorescence of the tyrosine residue exclusively. The integrated spectrum from 290 to 450 nm was used to obtain the relative fluorescence values of Tyr. Fluorescence measurements were performed in 1 cm light-path quartz cuvettes, with both excitation and emission bandwidths set to 5 nm. Sample fluorescence was determined by subtracting the fluorescence of the buffer. Each experiment was performed in duplicate. ,
# Quenching titrations with acrylamide were carried out by adding varying amounts of a quencher stock solution (5 M) to the protein solution (∼15 μM diluted 10-fold). , The excitation wavelength was set at 275 nm, and the fluorescence emission spectra were scanned from 275 to 500 nm using a PerkinElmer model LS 55. The emission and excitation slits were set to 5 and 10 nm, respectively, and a 1 cm cuvette was used for all experiments. According to the Stern–Volmer equation, the integration area between 290 and 450 nm was used for data analysis. , Before analyzing the quenching data, the fluorescence emission spectra were corrected for volume changes, scattering effects, and the inner filter effect due to acrylamide absorption. , Each experiment was performed in duplicate. The quenching mechanism analysis by the Stern–Volmer equation was calculated according to eq . F 0 is the fluorescence intensity without the quencher, and F is the intensity with a quencher. K sv is the Stern–Volmer quenching constant, while Q is the quencher concentration. K q is the biomolecular quenching constant, and τ0 is the average lifetime of the fluorophore. 1 F0/F=1+Ksv[Q]=1+Kqτ0[Q]
# The parameter n obtained from the fit is treated as an apparent slope/exponent (heterogeneous populations and partial fluorophore accessibility) and is not interpreted as the literal number of binding sites. 2 log(F0−F)/F=logKb+nlog[Q]
# The Van’t Hoff equation was used to calculate the various thermodynamic interaction parameters. Equation was implemented to calculate the free energy change. 3 lnKb=−ΔH^°/RT+ΔS^°/R 4 ΔG^°=ΔH^°−TΔS^°=−RTlnKb
# human amylin (hIAPP) [2] = biological target: T1, human amylin (hIAPP); assay: Thioflavin T (ThT) fluorescence assay of amylin aggregation; type: biochemical; conditions: read-out: IC50 of amylin aggregation inhibition
smiles,measurement,setting,value
CC(C)(C)c1cccc(CNCC(O)CNCCC(c2ccccc2)c2ccccc2)c1 (centres unmarked) [Compound 18],K q (quenching constant),human amylin (hIAPP) [1]; 25 °C,5.80 ± 0.17 10^12 M^–1 s^–1
same,K sv (Stern–Volmer quenching constant),human amylin (hIAPP) [1]; 25 °C,3.43 ± 0.21 10^4 M^–1
same,"n (apparent slope/exponent, binding sites)",human amylin (hIAPP) [1]; 25 °C,0.60 ± 0.12
same,ΔG,human amylin (hIAPP) [1]; 25 °C,–5.99 ± 0.10 kJ/mol
same,quenching of amylin's intrinsic fluorescence,human amylin (hIAPP) [1]; 25 °C,substantial quenching
same,Kd,human amylin (hIAPP) [1]; 25 °C,2500 µM
same,K q (quenching constant),human amylin (hIAPP) [1]; 30 °C,4.57 ± 0.11 10^12 M^–1 s^–1
same,K sv (Stern–Volmer quenching constant),human amylin (hIAPP) [1]; 30 °C,2.70 ± 0.39 10^4 M^–1
same,"n (apparent slope/exponent, binding sites)",human amylin (hIAPP) [1]; 30 °C,0.75 ± 0.10
same,ΔG,human amylin (hIAPP) [1]; 30 °C,–6.99 ± 0.20 kJ/mol
same,Kd,human amylin (hIAPP) [1]; 30 °C,769 µM
same,K q (quenching constant),human amylin (hIAPP) [1]; 37 °C,3.90 ± 0.12 10^12 M^–1 s^–1
same,K sv (Stern–Volmer quenching constant),human amylin (hIAPP) [1]; 37 °C,2.30 ± 0.18 10^4 M^–1
same,"n (apparent slope/exponent, binding sites)",human amylin (hIAPP) [1]; 37 °C,0.92 ± 0.10
same,ΔG,human amylin (hIAPP) [1]; 37 °C,–8.38 ± 0.30 kJ/mol
same,Kd,human amylin (hIAPP) [1]; 37 °C,286 µM
same,ΔH,human amylin (hIAPP) [1],53.31 ± 4.90 kJ/mol
same,ΔS,human amylin (hIAPP) [1],199.00 ±14.13 J/mol K
same,IC50,human amylin (hIAPP) [2],3040 nM
CC(C)(C)c1cccc(CNCC(O)CCNCCC(c2ccccc2)c2ccccc2)c1 (centres unmarked) [Compound 22],K q (quenching constant),human amylin (hIAPP) [1]; 25 °C,5.67 ± 0.16 10^12 M^–1 s^–1
same,K sv (Stern–Volmer quenching constant),human amylin (hIAPP) [1]; 25 °C,3.35 ± 0.18 10^4 M^–1
same,"n (apparent slope/exponent, binding sites)",human amylin (hIAPP) [1]; 25 °C,0.80 ± 0.15
same,ΔG,human amylin (hIAPP) [1]; 25 °C,–5.05 ± 0.27 kJ/mol
same,quenching of amylin's intrinsic fluorescence,human amylin (hIAPP) [1]; 25 °C,substantial quenching
same,Kd,human amylin (hIAPP) [1]; 25 °C,1000 µM
same,K q (quenching constant),human amylin (hIAPP) [1]; 30 °C,3.89 ± 0.11 10^12 M^–1 s^–1
same,K sv (Stern–Volmer quenching constant),human amylin (hIAPP) [1]; 30 °C,2.30 ± 0.27 10^4 M^–1
same,"n (apparent slope/exponent, binding sites)",human amylin (hIAPP) [1]; 30 °C,1.06 ± 0.10
same,ΔG,human amylin (hIAPP) [1]; 30 °C,–7.19 ± 0.17 kJ/mol
same,Kd,human amylin (hIAPP) [1]; 30 °C,20.9 µM
same,K q (quenching constant),human amylin (hIAPP) [1]; 37 °C,2.88 ± 0.12 10^12 M^–1 s^–1
same,K sv (Stern–Volmer quenching constant),human amylin (hIAPP) [1]; 37 °C,1.70 ± 0.13 10^4 M^–1
same,"n (apparent slope/exponent, binding sites)",human amylin (hIAPP) [1]; 37 °C,1.15 ± 0.15
same,ΔG,human amylin (hIAPP) [1]; 37 °C,–10.23 ± 0.41 kJ/mol
same,Kd,human amylin (hIAPP) [1]; 37 °C,10.7 µM
same,ΔH,human amylin (hIAPP) [1],124.00 ± 4.50 kJ/mol
same,ΔS,human amylin (hIAPP) [1],433.00 ± 9.13 J/mol K
same,IC50,human amylin (hIAPP) [2],2710 nM
